Results: paper PMC6934184, “Selective DNA-PKcs inhibition extends the therapeutic index of localized radiotherapy and chemotherapy” (The Journal of Clinical Investigation, 2019)

Biological target: T1, CDK1/cyclin B (Homo sapiens, UniProt P06493)
T1 construct: purchased Thermo Fisher Scientific (Life Technologies) SelectScreen
Assay: SelectScreen Z'LYTE
Type: biochemical
In short: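 Compound tested in SelectScreen activity assays, Z'LYTE for CSF1R, CDK1/cyclin B and MAP2K6 and Adapta for CAMK1. ATP for CAMK1 was listed as 10, and Km app was used for CSF1R. Results are expressed in percent.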

T1 sequence (P06493 whole entry): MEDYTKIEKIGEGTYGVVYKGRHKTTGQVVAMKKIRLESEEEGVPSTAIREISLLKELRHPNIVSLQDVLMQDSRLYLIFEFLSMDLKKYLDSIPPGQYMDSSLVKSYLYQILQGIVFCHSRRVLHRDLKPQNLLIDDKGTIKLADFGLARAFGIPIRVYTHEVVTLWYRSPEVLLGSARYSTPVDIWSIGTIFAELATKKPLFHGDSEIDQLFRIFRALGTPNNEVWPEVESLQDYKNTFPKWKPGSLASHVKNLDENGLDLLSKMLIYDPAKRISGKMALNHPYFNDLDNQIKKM
T1 sequence (P14635 whole entry partner): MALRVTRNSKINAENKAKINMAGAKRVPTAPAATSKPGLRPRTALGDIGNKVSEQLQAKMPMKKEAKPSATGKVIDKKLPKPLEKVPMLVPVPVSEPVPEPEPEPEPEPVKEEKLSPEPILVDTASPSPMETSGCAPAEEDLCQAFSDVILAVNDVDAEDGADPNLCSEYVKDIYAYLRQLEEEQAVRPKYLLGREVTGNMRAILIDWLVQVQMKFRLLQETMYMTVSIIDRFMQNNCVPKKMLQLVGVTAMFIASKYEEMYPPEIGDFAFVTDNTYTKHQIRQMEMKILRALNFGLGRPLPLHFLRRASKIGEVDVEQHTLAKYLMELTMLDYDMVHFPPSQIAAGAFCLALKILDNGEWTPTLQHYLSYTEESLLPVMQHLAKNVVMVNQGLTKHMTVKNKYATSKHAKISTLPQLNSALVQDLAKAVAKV

Compound: CN(C(=O)CN1CCOCC1)c1ccc2sc3c(-c4cccc5c(=O)cc(N6CC7CCC(C6)O7)oc45)cccc3c2c1 [NU5455]
- inhibition at 1 µM: 1.6%
